Experiments:
in vivo [1] = conditions: rat, iv, 30 mg/kg
Method: Blood samples (≈220 ul) were collected into heparinized tubes containing 20 μl Sigma protease inhibitor cocktail for mammalian tissues diluted at a 1:9 ratio in 0.1 M PBS (pH=7). The samples were collected at 20, 10 and 0 min before and 1, 2, 4, 8, 16, 32 and 64 min after injection. […] The samples were centrifuged at 3000× g for 15 min at 4° C. and the plasma removed and stored at −80° C. until extraction and assay.

[2] = rat, in vivo, iv, 3 mg/kg
Method: (§1) The ED-50 was 195 pg/tube, and the limit of detection was 2 pg/ml. The intra-assay CV was <10% over the range 0.5 to 25 ng/ml. Any samples reading off the standard curve were further diluted before being re-assayed.

in vivo [3] = conditions: rat, iv, 3 mg/kg
Method: as §1

Q: What does the source list for `NCC(=O)N1CCC[C@H]1C(=O)N[C@@H](CCC(=O)O)C(=O)O` [GPE, glycine-proline-glutamate]?
A: Pro-Glu in plasma by HPLC (in vivo [1]): could not be identified; level at 1 min (in vivo [1]): 33000 ng/mL; time for plasma GPE to decline back to baseline values [2]: ≤ 8 min; level at 8 min (in vivo [3]): 9.8 ± 1.33 ng/mL
